Experimental data taken from patent publication EP0500426A1, “2,6-Dimethyl-4-(4'-hydroxy-3',5'-di-t-butylphenyl)-1,4-dihydropyridine derivatives, process for their preparation and their use as free radical scavengers” (Instituto de Investigacion Y Desarrollo Quimico-Biologico …, priority 1991, dated 1992).

Experiments:
canaux calciques = conditions: see Spanish patent n°531.033; cited from earlier work
radicaux libres = assay: Free radical scavenger activity (test not specified)
neutrophiles humains = assay: Free radical production by FMLPA-stimulated human neutrophils (cytochrome C reduction); assay type: cell-based; conditions: Neutrophil, reduced cytochrome C at 550 nm, read-out: CI50 (the source's name)
From the text: (§1) Les composés de la présente invention ont fait l'objet d'un essai de contrôle de leur aptitude à capter les radicaux libres engendrés par la membrane hépatique du rat stimulée par du Fe++/acide ascorbique (système connu pour induire une formation de radicaux libres). Les composés les plus actifs ont fait ensuite l'objet d'essais de contrôle de leur aptitude à inhiber la formation des radicaux libres par les neutrophiles humains stimulés par la N-formyl-L-méthionyl-L-leucyl-L-phénylalanine et à protéger le tissu hépatique, entretenu en culture, contre les lésions par ischémie/reperfusion.
2.- Dosage des radicaux libres dans les polymorphonucléaires.
On a isolé des neutrophiles humains chez des donneurs volontaires bien portants par centrifugation sur gradient dans du Ficol Hypaque (Pharmacia). On a mélangé 100 µl de suspension de cellules (nombre final 500 000 cellules) avec 700 µl de solution physiologique tamponnée au phosphate et 50 µl des composés expérimentaux en solution dans du DMSO. On a utilisé comme témoin positif 25 µl d'une solution à 1 mg par ml de superoxyde dismutase dans du DMSO (à savoir 25 µg de SOD). On a préincubé les tubes à 37°C pendant 10 minutes sous agitation lente.
On a stimulé les neutrophiles par addition de 100 µl de cytochrome C type VI (1 mM) (Sigma) dans de la solution physiologique tamponnée au phosphate, de 50 µl de N-formyl-L-méthionyl-L-leucyl-L-phénylalanine (FMPLA) (10 µM) (Sigma F 3506) et par incubation pendant 5 minutes à 37°C. Après refroidissement à 0°C pour arrêter la réaction, on a centrifugé les tubes à 8000 xg et on a déterminé par spectrophotométrie à 550 nm le cytochrome C réduit, en utilisant des tubes contenant du SOD comme témoins.

[1] = tested on: membrane hépatique du rat; assay: Free radical scavenging in rat liver membranes: lipid peroxidation induced by Fe++/ascorbic acid, thiobarbituric acid-reactive substances; assay type: biochemical; conditions: 45 minutes at 37°C, substances reacting with ATB, read-out: CI50 (the source's name)
Procedure: Les composés de la présente invention ont fait l'objet d'un essai de contrôle de leur aptitude à capter les radicaux libres engendrés par la membrane hépatique du rat stimulée par du Fe++/acide ascorbique (système connu pour induire une formation de radicaux libres).
1.- Activité de captage des radicaux libres dans la membrane hépatique du rat.
On a préparé des homogènats de foie de rat (1/10 p/v) dans du Ringer-Tris (50mM)-saccharose ([…]) de pH 7,4, après sacrifice de rats Wistar au moyen de CO2. On a découpé les foies en petits morceaux (1 à 2 mm) et on les a homogénéisés à 0°C dans un homogénéisateur Polytron. On a centrifugé les homogénats à 1000 x g pendant 10 minutes à 4°C et rejeté le culot. On a centrifugé le surnageant à 10 000 x g pendant 20 minutes et recueilli le culot, puis on l'a remis en suspension, dans le rapport 1/10, dans du Ringer-Tris (50 mM). On a utilisé des échantillons de la préparation immédiatement et on en a conservé à -20°C. […] Après 45 minutes à 37°C, on a ajouté 1 ml d'une solution contenant 0,5% d'acide thiobarbiturique (ATB) dans de l'acide trichloroacétique (ATC) à 20% dans chaque tube et après 15 minutes d'incubation à 95°C, on a déterminé par spectrophotométrie les substances réagissant avec l' A TB. On a réalisé pour toutes les expériences des témoins appropriés exempts du médicament.

tissu hépatique = assay: Ischemia/reperfusion in short-term organ culture of rat liver, malonaldehyde by thiobarbituric acid reaction; assay type: cell-based, rats Wistar; conditions: 1 h, concentration inhibiting malonaldehyde production by 50%, 60 minutes ischemic anoxia, 60 minutes reoxygenation, read-out: CI50 (the source's name)
From the text: as §1
3.- Ischémie/reperfusion dans une culture d'organe à court terme.
Pour ces études, on a prélevé des échantillons de tissu dans des groupes de 10 rats Wistar mâles anesthésiés au pentobarbital sodique (60 mg par kg, i.p.). On a isolé les foies et on les a divisés en cinq échantillons d'environ 0,4 g qu'on a pesés et transférés dans des fioles d'Erlenmeyer de 50 ml bouchées contenant de la solution de Tris-Ringer saturée d'argon (anoxique).
On a purgé à l'argon les fioles d'Erlenmeyer de 50 ml contenant les échantillons du tissu et 3,9 ml de tampon de Tris-Ringer traité à l'argon, on les a rebouchées et on les a conservées au bain-marie à 37°C sans agitation pendant 50 minutes pour provoquer l'ischémie. La subdivision du tissu et l'agitation ont été évitées à ce stade pour réduire au minimum la diffusion des métabolites depuis le tissu jusque dans le milieu, qui n'aurait pu se faire au cours d'une ischémie in vivo.
Division du tissu et addition du médicament.
Après 50 minutes d'ischémie, on a divisé les tissus avec des ciseaux d'ophtalmologie en fragments d'environ 1 mm de côté. Du fait que l'argon est plus dense que l'air, son déplacement hors de la fiole et son remplacement par l'oxygène sont restés minimaux pendant le découpage et l'addition ultérieure du médicament. Ensuite, on a ajouté 0,1 ml de tampon de Tris-Ringer contenant l'un des composés à évaluer ou de l'hydroxy- toluène butylé (HTB), pour arriver à la concentration finale souhaitée; on a sélectionné l'hydroxytoluène butylé du fait que c'est un antioxydant classique qui gêne la propagation en chaîne des radicaux. On a procédé à ces additions avec rapidité pour éviter d'introduire de l'oxygène. On a rebouché les fioles et on les a secouées modérément pour mélanger le tissu avec le médicament, puis on les a remises au bain-marie pendant 10 minutes pour la mise a l'équilibre avant la réoxygénation.
Après 60 minutes d'anoxie ischémique, on a réoxygéné les fioles par barbotage vif d'oxygène gazeux à 100% dans les échantillons pendant 1 minute et par purge de la phase gazeuse avec de l'oxygène (de l'argon remplaçant l'oxygène à ce stade dans les expériences témoins d'ischémie sans réoxygénation). […]

Row | SMILES | IC50 [1] | also measured
1 | CCOC(=O)C1=C(C)NC(C)=C(C(=O)OC)C1c1cc(OC)c(O)c(OC)c1 (centres unmarked) | – | activité de blocage des canaux calciques (canaux calciques): pratiquement exempt; activité comme capteur de radicaux libres (radicaux libres): intéressante activité
2 | CCOC(=O)C1=C(C)NC(C)=C(C(=O)OC)C1c1cc(C(C)(C)C)c(O)c(C(C)(C)C)c1 (centres unmarked) [Exemple 1, 2,6-Diméthyl-4-(4'-hydroxy-3',5'-di-t-butylphényl)-1,4-dihydropyridine-3,5-dicarboxylatede méthyle et d'éthyle] | 780 nM | IC50 (neutrophiles humains): 10.9 µM; IC50 (tissu hépatique): 170 nM
3 | CCOC(=O)C1=C(C)NC(C)=C(C(=O)OC(C)C)C1c1cc(C(C)(C)C)c(O)c(C(C)(C)C)c1 (centres unmarked) [Exemple 2, 2,6-diméthyl-4-(4'-hydroxy-3',5'-di-t-butylphényl)-1,4-dihydropyridine-3,5-dicarboxylate d'éthyle et d'isopropyle] | 290 nM | IC50 (neutrophiles humains): 10.2 µM; IC50 (tissu hépatique): 200 nM
4 | COC(=O)C1=C(C)NC(C)=C(C(=O)OC)C1c1cc(C(C)(C)C)c(O)c(C(C)(C)C)c1 [Exemple 3, 2,6-Diméthyl-4-(4'-hydroxy-3',5'-di-t-butylphényl)-1,4-dihydropyridine-3,5-dicarboxylatede diméthyle] | 1250 nM | –
5 | CCOC(=O)C1=C(C)NC(C)=C(C(=O)OCC2COC(C)(C)O2)C1c1cc(C(C)(C)C)c(O)c(C(C)(C)C)c1 (centres unmarked) [Exemple 4, 2,6-diméthyl-4-(4'-hydroxy-3',5'-di-t-butylphényl)-1,4-dihydropyridine-3,5-dicarboxylate d'éthyle etde (2,2-diméthyl-1,3-dioxolan-4-yl)méthyle] | 1250 nM | –
6 | CCOC(=O)C1=C(C)NC(C)=C(C(=O)OCC(O)CO)C1c1cc(C(C)(C)C)c(O)c(C(C)(C)C)c1 (centres unmarked) [Exemple 5, 2,6-diméthyl-4-(4'-hydroxy-3',5'-di-t-butyl-phényl)-1,4-dihydropyridine-3,5-dicarboxylate d'éthyle etde 2,3-dihydroxypropyle] | 50000 nM | –
7 | CCOC(=O)C1=C(C)NC(C)=C(C(=O)OCCN(C)Cc2ccccc2)C1c1cc(C(C)(C)C)c(O)c(C(C)(C)C)c1 (centres unmarked) [Exemple 6, chlorhydratede 2,6-diméthyl-4-(4'-hydroxy-3',5'-di-t-butylphényl)-1,4-dihydropyridine-3,5-dicarboxylate d'éthyle etde 2-(N-méthyl-N-benzylamino)éthyle] | 20000 nM | –
8 | CCOC(=O)C1=C(C)NC(C)=C(C(=O)OCCNC)C1c1cc(C(C)(C)C)c(O)c(C(C)(C)C)c1 (centres unmarked) [Exemple 7, chlorhydratede 2,6-diméthyl-4-(4'-hydroxy-3',5'-di-t-butylphényl)-1,4-dihydropyridine-3,5-dicarboxylate d'éthyle etde 2-(méthylamino)éthyle] | 2500 nM | –
9 | CCOC(=O)C1=C(C)NC(C)=C(C(=O)OCc2ccccc2)C1c1cc(C(C)(C)C)c(O)c(C(C)(C)C)c1 (centres unmarked) [Exemple 8, 2,6-diméthyl-4-(4'-hydroxy-3',5'-di-t-butylphényl)-1,4-dihydropyridine-3,5-dicarboxylate d'éthyle etde benzyle] | 1000 nM | –
10 | CCOC(=O)C1=C(C)NC(C)=C(C(=O)O)C1c1cc(C(C)(C)C)c(O)c(C(C)(C)C)c1 (centres unmarked) [Exemple 9, 2,6-diméthyl-4-(4'-hydroxy-3',5'-di-t-butylphényl)-5-carbéthoxy-3-carboxy-1,4-dihydropyridine] | 2500 nM | –
11 | CCOC(=O)C1=C(C)NC(C)=C(C(=O)OCC(C)C)C1c1cc(C(C)(C)C)c(O)c(C(C)(C)C)c1 (centres unmarked) [Exemple 10, 2,6-diméthyl-4-(4'-hydroxy-3',5'-di-t-butylphényl)-1,4-dihydropyridine-3,5-dicarboxylate d'éthyle et d'isobutyle] | 370 nM | IC50 (neutrophiles humains): 10.5 µM; IC50 (tissu hépatique): 200 nM
12 | CC1=C(C(=O)OCC(C)C)C(c2cc(C(C)(C)C)c(O)c(C(C)(C)C)c2)C(C(=O)OCC(C)C)=C(C)N1 [Exemple 11, 2,6-diméthyl-4-(4'-hydroxy-3',5'-di-t-butylphényl)-1,4-dihydropyridine-3,5-dicarboxylatede diisobutyle] | 1000 nM | –
13 | Cc1cc(C(C)(C)C)c(O)c(C(C)(C)C)c1 [HTB, hydroxytoluène butylé, reference compound] | 1500 nM | IC50 (neutrophiles humains): 20 µM; IC50 (tissu hépatique): 1750 nM
14 | Cc1c(C)c2c(c(C)c1O)CCC(C)(CCCC(C)CCCC(C)CCCC(C)C)O2 (stereo not drawn) [α-Tocophérol, reference compound] | 15000 nM | –
